Columns and labels:
Assay type in all cases: cell-based
[1] = system: Escherichia coli ATCC 25922; experiment: Neutralizer identification experiment, Escherichia coli
Procedure: (§1) (4) Experimental Method for Selecting a Neutralizer:
(§2) Escherichia coli ATCC 25922 and Staphylococcus aureus ATCC 29213 were used as the experimental strains, and the concentration of the drug to be tested was set to be 2.5 g/L. The experiment was carried out according to the suspension quantitative sterilization procedure, with three repetitions, and six parallel groups:
(§3) Group I: 100 μL of a bacterial suspension (Escherichia coli ATCC 25922 with a concentration of 1×10^8 CFU/mL and Staphylococcus aureus ATCC 29213 with a concentration of 1×10^8 CFU/mL) interacted with 400 μL of the drug to be tested for 5 min; 50 μL of the mixed solution and 450 μL of PBS buffer were mixed to be uniform and diluted; the viable bacteria therein was counted;
(§4) Group II: 100 μL a bacterial suspension (Escherichia coli ATCC 25922 with a concentration of 1×10^8 CFU/mL and Staphylococcus aureus ATCC 29213 with a concentration of 1×10^8 CFU/mL) interacted with 400 μL of the drug to be tested for 5 min; 50 μL of the mixed solution and 450 μL of a neutralizer were mixed to be uniform and reacted for 10 min, and diluted; the viable bacteria therein was counted;
(§5) Group III: 10 μL of a bacterial suspension, 40 μL of sterile water, and 450 μL of a neutralizer were reacted for 10 min; the reaction solution was diluted, and the viable bacteria therein was counted;
(§6) Group V: 100 μL of bacterial suspension and 400 μL of a neutralizer were reacted for 5 min; 50 μL of the mixture and 450 μL of PBS buffer were mixed to be uniform, and then diluted; the viable bacteria therein was counted;
(§7) Group VI: a mixture of culture medium and PBS buffer was used as negative control.
(§8) Determination of the Results:
(§9) Group I had no bacteria growth or a small amount of bacteria growth;
(§10) Group II had bacteria growth, and the number of bacteria was not less than 100 CFU/mL;
(§11) the error rate of the number of bacteria between the Group III, Group IV, and Group V was less than or equal to 15%;
(§12) Group VI had no bacteria growth.

[2] = system: Staphylococcus aureus ATCC 29213; experiment: Neutralizer identification experiment, Staphylococcus aureus
Procedure: as §1, §2, §3, §4, §5, §6, §7, §8, §9, §10, §11, §12

[3] = system: Bacillus subtilis var. niger spores ATCC 9372; experiment: Suspension quantitative experiment, Bacillus subtilis var. niger spores; details: for Killing logarithmic value: suspension method
Procedure: (4) Operation Method of Suspension Quantitative Experiment:
a. The Bacillus subtilis var. niger spores ATCC 9372 freeze-dried strain tube was provided, opened up under an aseptic condition, and an appropriate amount of nutrient broth was added thereto with a capillary pipette. The strain was melted and dispersed by gently blowing and sucking several times. A test tube containing 5.0 mL-10.0 mL of nutrient broth medium was provided, and a small amount of bacterial suspension was dropped thereto, and incubated at 37° C. for 18 h-24 h. The bacterial suspension of the first generation culture was taken by using an inoculation loop.
b. The monoclonal strains of the first generation culture were picked out and placed in 3 mL of NMB. The strains were shaken in a constant temperature culture shaker for 3 h with a rotation speed of 220 rpm, obtaining a bacterial suspension with a concentration of (1-5)×10^8 CFU/mL.
c. 0.5 mL of bacterial suspension was added to a sterile test tube, and 0.5 mL of an organic interfering substance (0.03 mol/L PBS buffer) was then added thereto. They were mixed to be uniform, and placed in a water bath at 20° C.±1° C. for 5 min. 4.0 mL of the sample to be tested prepared in step (1) was drawn with a sterile pipette and injected into the mixed solution, mixed quickly, and the time was recorded immediately.
d. After the experimental bacteria interacted with the sample to be tested for the predetermined time. 0.5 mL of the mixture of the experimental bacteria and a disinfectant was drawn respectively and added to 4.5 mL of a neutralizer, and mixed to be uniform.
e. After 10 min of neutralization, 1.0 mL of the sample solution was drawn, and the number of viable bacteria was determined by viable count method. After the viable count method, sample solution of each pipette was inoculated onto 2 plates. When the number of colonies growing on the plate was large, 10-fold dilution was performed, and then the viable bacteria was cultured and counted.
h. At the same time, PBS buffer was used to replace the sample to be tested, and a parallel test was performed as a positive control.
f. All test samples were placed in a 37° C. incubator overnight, and the results were observed.
g. The experiment was repeated for 3 times, the concentration of viable bacteria (CFU/mL) of each group was calculated, and converted to logarithmic value (N), and then the killing logarithmic value was calculated according to the following equation:
Killing logarithmic value (KL)=the logarithmic value of the average viable bacteria concentration of the control group (No)−the logarithmic value of the viable bacteria concentration of the test group (Nx).
When calculating the killing logarithmic value, two digits after the decimal point was kept, and digital round-off was allowed.

[4] = system: Bacillus subtilis var. niger spores ATCC 9372; experiment: Carrier immersion quantitative sterilization test; details: carrier method
Procedure: (5) Operation Method of the Carrier Immersion Quantitative Sterilization Test:
a. A sterile small plate was provided, and marked with the concentration of the sample to be tested injected. The sample to be tested of the corresponding concentration was drawn and injected into the plate in an amount of 5.0 mL per piece.
b. 3 pieces of Bacillus subtilis var. niger spores were placed on the plate by using a sterile tweezer, and soaked in the sample to be tested.
c. After the bacteria and drugs interacted for each predetermined time, the bacteria pieces were taken out by using a sterile tweezer and transferred into a test tube containing 5.0 mL of a neutralizer. The test tube was vibrated 80 times in the palm of the hand to wash the bacteria on the bacteria piece into the neutralization solution, left to stand for another 10 min to fully neutralize. Finally after further mixing, 1.0 mL of the mixture was drawn and directly inoculated onto the plate, 2 plates for each pipette, and the number of viable bacteria was determined.
d. Another plate was provided, and 10.0 mL of PBS buffer was injected instead of the sample to be tested. 2 pieces of bacteria were added thereto as the positive control group, and the subsequent test steps and viable bacteria culture and counting were the same as the above test groups.
e. All test samples were cultured overnight in a 37° C. incubator, and the results were observed.
f. The experiment was repeated for 3 times (including the control group), and the number of viable bacteria (CFU/piece) in each group was calculated and converted to a logarithmic value (N).

[5] = 2.5 g/L drug reacted with neutralizer 10 min, then bacterial suspension added
[6] = 2.5 g/L drug, 5 min, then mixed with PBS buffer
[7] = 2.5 g/L drug, 5 min, then neutralizer 10 min

CNC(=O)C(c1ccc(O)c(O)c1)c1ccco1 (stereo not shown) [Example 5, 2-(3,4-dihydroxyphenyl)-2-(2-furyl)-N-methylacetamide]
Viable bacteria count, Group IV [1, 5]: 6 × 10^6 CFU/mL
Viable bacteria count, Group I [1, 6]: 2 × 10^4 CFU/mL
Viable bacteria count, Group II [1, 7]: 400 CFU/mL
Viable bacteria count, Group IV [2, 5]: 7 × 10^5 CFU/mL
Viable bacteria count, Group I [2, 6]: 3 × 10^4 CFU/mL
Viable bacteria count, Group II [2, 7]: 5 × 10^4 CFU/mL
log reduction at 15000 µg/mL ([3]; Bacillus subtilis, ATCC9372, 0.5 h, read-out: Activity (killing logarithmic value)): 5.6

O=Cc1ccccc1C=O [o-Phthalaldehyde solution, o-Phthalaldehyde]
Killing logarithmic value ([3]; 5 g/L, 10 min): 5.23
Killing logarithmic value ([3]; 5 g/L, 20 min): 5.31
Killing logarithmic value ([3]; 5 g/L, 30 min): 5.39
Killing logarithmic value ([3]; 10 g/L, 10 min): 5.41
Killing logarithmic value ([3]; 10 g/L, 20 min): 5.49
Killing logarithmic value ([3]; 10 g/L, 30 min): 5.57
Killing logarithmic value ([3]; 15 g/L, 10 min): 5.53
Killing logarithmic value ([3]; 15 g/L, 20 min): 5.68
Killing logarithmic value ([3]; 15 g/L, 30 min): 5.71
Killing logarithmic value ([4]; 5 g/L, 1 h): 1.95
Killing logarithmic value ([4]; 5 g/L, 2 h): 3.23
Killing logarithmic value ([4]; 5 g/L, 3 h): 5.21
Killing logarithmic value ([4]; 5 g/L, 4 h): 5.53
Killing logarithmic value ([4]; 10 g/L, 1 h): 2.19
Killing logarithmic value ([4]; 10 g/L, 2 h): 5.12
Killing logarithmic value ([4]; 10 g/L, 3 h): 5.26
Killing logarithmic value ([4]; 10 g/L, 4 h): 5.53
Killing logarithmic value ([4]; 15 g/L, 1 h): 3.23
Killing logarithmic value ([4]; 15 g/L, 2 h): 5.21
Killing logarithmic value ([4]; 15 g/L, 3 h): 5.36
Killing logarithmic value ([4]; 15 g/L, 4 h): 5.53

Source: US20220279787A1, “a-Substituted Phenyl Structure-Containing Compound, Preparation Method Thereof, and Disinfectant” (Henan Ruibo Pharmaceutical Technology Co. Ltd., priority 2019, published 2022)
